Data published in patent US12128129B2, “Lactobacillus plantarum for skin care” (SYMRISE AG, priority 2019, dated 2024).

Columns and labels:
HaCaT keratinocytes [1] = experiment: IL-8 release after IL-1alpha stimulation of pre-treated keratinocytes (ELISA); format: cell-based, human; details: 48 h pre-treatment, then 30 ng/mL IL-1alpha for 8 h
Method: Anti-Inflammatory Effects of Lactobacillus plantarum HEAL 19 and HEAL 99 HaCaT keratinocytes were cultivated in 96-well plates using RPMI-A, medium sterile filtered with L-Glutamine, Capricorn, supplemented with 10% fetal calf serum (FCS), Capricorn. The plates were incubated at 37° C. and 5% CO2. After 24 hours starvation with cell culture medium (RPMI, 1% FCS) the cells were washed once. The anti-inflammatory substances/inactivated bacteria suspensions were suspended in starvation medium, applied and incubated for 24/48 h with parameters described above. […] To remove bacterial cells after pre-incubation all wells were washed with cell culture medium three times. IL-1alpha, Gibco, life technologies was dissolved in H2Odest, diluted in starvation medium and pipetted to wells, preferably at a concentration of 30 ng/mL. Alternatively, a heat inactivated Staphylococcus aureus (DSM799) suspension was used as pro-inflammatory agent in a concentration of 0.1 mg/mL-1 mg/mL dry mass. After 8 h incubation the supernatants were separated. All samples were stored at −80° C. until further analyses. IL-8 concentrations were measured with Human CXCL8/IL-8, DuoSet ELISA, Development Systems, R&D Systems. The experimental procedure was performed as described in the provided protocol. After calculating means of the duplicate/triplicate values and subtraction of the average zero standard optical density the calculation was done using four parameter logistic curve-fit for creating standard curves.

HaCaT keratinocytes [2] = experiment: IL-8 release after S. aureus stimulation of pre-treated keratinocytes (ELISA); format: cell-based, human; details: 0.25 mg/mL, 48 h pre-treatment
Method: Anti-Inflammatory Effects of Lactobacillus plantarum HEAL 19 and HEAL 99 HaCaT keratinocytes were cultivated in 96-well plates using RPMI-A, medium sterile filtered with L-Glutamine, Capricorn, supplemented with 10% fetal calf serum (FCS), Capricorn. The plates were incubated at 37° C. and 5% CO2. After 24 hours starvation with cell culture medium (RPMI, 1% FCS) the cells were washed once. The anti-inflammatory substances/inactivated bacteria suspensions were suspended in starvation medium, applied and incubated for 24/48 h with parameters described above. Dexamethasone in a concentration of 10 μM was used as positive control. To remove bacterial cells after pre-incubation all wells were washed with cell culture medium three times. IL-1alpha, Gibco, life technologies was dissolved in H2Odest, diluted in starvation medium and pipetted to wells, preferably at a concentration of 30 ng/mL. Alternatively, a heat inactivated Staphylococcus aureus (DSM799) suspension was used as pro-inflammatory agent in a concentration of 0.1 mg/mL-1 mg/mL dry mass. After 8 h incubation the supernatants were separated. All samples were stored at −80° C. until further analyses. IL-8 concentrations were measured with Human CXCL8/IL-8, DuoSet ELISA, Development Systems, R&D Systems. The experimental procedure was performed as described in the provided protocol. […]

[3] = test system: ex vivo human skin models; experiment: Epidermal filaggrin, involucrin and cytokeratin 14 immunostaining ex vivo; format: cell-based; details: various concentrations, vs vehicle (DMSO)
Method: Ex Vivo Studies Ex vivo trials were done by Cutech Srl, Italy. Effects of described Lactobacillus strains on various parameters were analyzed in ex vivo skin models. Human skin from abdominal plastic surgery was used. Applications of heat inactivated bacteria suspensions were done systemically or topically, in formulation or solved in cell culture medium Tape stripping may be used. Concentrations and incubation times may vary. All data were processed in terms of mean, standard deviation and standard error of mean (SEM) for each treatment. Epidermal Filaggrin, Involucrin and Cytokeratin 14 For analyses, the models were immune-stained with the selected antibody filaggrin rabbit polyclonal [H-300], involucrin mouse monoclonal (SY5) and/or cytokeratin 14 (CK14) rabbit monoclonal (EPR17350). The amount of the antigen present in each slide was evaluated by estimating the intensity and the distribution of red dye within the epidermis. The obtained data were normalized for the length of the basal lamina.

ex vivo skin models = experiment: Skin barrier integrity (Rhodamine B) ex vivo after diesel particulate 1650b; format: cell-based, human; details: L. plantarum HEAL 19 formulation vs placebo, stimulation with diesel particulate (1650b)
Method: Ex vivo trials were done by Cutech Srl, Italy. Effects of described Lactobacillus strains on various parameters were analyzed in ex vivo skin models. Human skin from abdominal plastic surgery was used. Applications of heat inactivated bacteria suspensions were done systemically or topically, in formulation or solved in cell culture medium Tape stripping may be used. Concentrations and incubation times may vary. Skin Barrier Integrity (Rhodamine B) Ex vivo skin models have been treated topically with the L. plantarum strains before the application of the diesel particulate (i.e. 1650b). All skin samples have been incubated at 35° C., 5% CO2 and environmental humidity. At the end of the experimental phase the skin samples have been harvested stained with Rhodaminde B, cryo-fixed and cut at the cryostat for consequent image acquisition and analysis. The analysis of Rhodamine B fluorescence has been performed within two sections of the epidermis area for each skin model. Images have been analyzed by evaluating the fluorescence through Image-J application (NIH, USA).

[4] = test system: S. aureus (DSM799/ATCC6538); experiment: Inhibition of Staphylococcus aureus growth (growth curves, OD 620 nm); format: cell-based; details: 0.1 and/or 0.05%, 16 h incubation
Method: Antimicrobial Effects of the Lactobacillus Strains Growth curves of various bacteria were measured photometrically at 620 nm. Inhibition of Staphylococcus aureus: 96-well MTP were prepared according to DIN58940-8 with autoclaved CASO medium (MERCK 1.05459) and test substances dissolved in DMSO or distilled water. The relevant wells were inoculated with S. aureus (DSM799/ATCC6538) using stock cultures maintained in 10% glycerin at −20° C. An inoculum of 1-6×10^6 cfu was added per well. Test substances were analyzed using three or four replicate wells during incubation at 37° C. for 16 hours. Growth curves were determined in each well via absorption at 620 nm using a Sunrise Photometer (Tecan, Austria) and Magellan Software. A concentration of 125 ppm farnesol and 4 ppm triclosan was used as positive control for growth inhibition, both pre-dissolved in DMSO (Merck 802912). For calculation, averages of detected absorptions were calculated and normalized with blank values. These OD values were plotted in function of time for graphical presentation.

[5] = test system: HEPKp 3 dimensional skin models; experiment: Induction of hyaluronic acid in HEPKp 3D skin models (ELISA); format: cell-based, human; details: 0.005% in cell culture medium, 8 days treatment
Method: Induction of Hyaluronic Acid Human epidermal keratinocyte progenitors (HEPKp) generated 3d human skin models were cultivated and systemically treated with test substances. Briefly, defined concentrations of test substances were added to cell culture medium and each skin model was treated in cell culture dishes for up to 9 days at 37° C. and 5% CO2. After the treatment, collected supernatants were stored at −80° C. until further analyses. Viability of the cells was controlled by MTT standard method. Hyaluronic acid concentrations were measured by TECOmedical hyaluronic acid plus ELISA. The experimental procedure was performed as described in the provided protocol.

[6] = test system: ex vivo human skin models; experiment: IL-8 release of ex vivo human skin models after diesel particulate 1650b; format: cell-based; details: topical cosmetic formulation containing L. plantarum HEAL 19, stimulation with diesel particulate (1650b)
Method: Ex Vivo Studies Ex vivo trials were done by Cutech Srl, Italy. Effects of described Lactobacillus strains on various parameters were analyzed in ex vivo skin models. Human skin from abdominal plastic surgery was used. Applications of heat inactivated bacteria suspensions were done systemically or topically, in formulation or solved in cell culture medium Tape stripping may be used. Concentrations and incubation times may vary. All data were processed in terms of mean, standard deviation and standard error of mean (SEM) for each treatment. Anti-Inflammatory Effects Above described ex vivo human skin models have been used to verify the anti-inflammatory potential of the L. plantarum strains. The models were treatment with a L. plantarum HEAL 19 cosmetic emulsion followed by the application of the external noxious agent and pollutant 1650b, simulating air pollution. At a selected endpoint, the organ cell culture medium has been withdrawn from wells and analyzed for IL-8 using Deluxe set Human IL-8 of Biolegend®, Inc.

HaCaT keratinocytes [7] = experiment: AMP gene expression in keratinocytes grown as mono-layer (real time PCR, TaqMan array); format: cell-based, human; details: for induction of β-Defensin 3, calculated RQ-value: RQ >2 = relevant induction
Method: Effects of Lactobacillus Strains on AMP Gene Expression in Keratinocytes Grown as Mono-Layer
AMP inductions were measured with real time PCR analysis using Taq-Man® Array fast 96-well plates.
HaCaT keratinocytes were cultivated in EpiLife medium, cascade Biologics, Gibco, incl. HKGS, Gibco, life technologies. Test substances were diluted in equal medium and added in a volume of 2 mL per well on 6-well plates. All samples are tested on 100% confluent cells incubated at 37° C., 5% CO2. After 24 h incubation time all samples were removed and cells washed twice with Dulbecco's Phosphate Buffered Saline with Ca and Mg, Capricorn. RNA isolation was performed using RNeasy® Mini Kit, Qiagen. The procedure has been done as describes in the RNeasy Mini Handbook.
Cells were lysed and precipitated with ethanol, the homogenate was washed three times using the spin column and the mRNA was eluated with purified water. Depending on the sample the procedure was slightly adjusted.
RNA concentration was measured using μCuvetteG 1.0 and BioPhotometer, Eppendorf by measuring the absorption at 260 nm. Control values, like E260/280 or E260/230 were calculated simultaneously. Transcription was done with a minimum of 0.5-1 μg RNA per sample.
Reverse transcription was done using high capacity RNA-to-cDNA Kit, Applied Biosystems. The procedure was based on the provided protocol. All samples were incubated in a PCR Thermocycler, Biometra running 60 min at 37° C. for reverse transcription, followed by 5 min at 95° C. (enzyme inactivation) and holding temperature at 4° C. in reaction room.
Quantitative Real-Time PCR was done using StepOne Plus Fast Real Time PCR Instrument, Applied Biosystems. Initial steps of the RT-PCR included a first heating phase holding for 20 s at 95° C., followed by 40 cycles of cDNA denaturation for 3 s at 95° C. and annealing/elongation at 60° C. for 30 s.
Analysis was done by 2-ACT Method—in detail: • 1. Standardization of Ct values with reference-gen (HPRT) ΔCTvaluegene=CTvaluegene−CTvalueReferencegene (HPRT) • 2. Subtraction of ACT-value of control sample (untreated) and ACT-value (treated) ΔΔCTvaluegene=ΔCTvaluetreated−ΔCTvaluecontrol • 3. Calculation of RQ-Ratio (relative quantification-value) RQ−value=2^−ΔΔCT
A RQ-Value of >2 was defined as relevant induction of a gene.

[8] = test system: HEPKp 3 dimensional skin models; experiment: Filaggrin release from HEPKp 3D skin models (ELISA); format: cell-based, human; details: 0.05%, after 8 days, vs medium control
From the text: Induction of Moisturizing Factor Filaggrin in 3D Skin Models Three dimensional skin models derived from human epidermal keratinocyte progenitors (HEPKp) and were systemically treated with test substances in CnT-PR-3D medium for 4 to 9 days. The filaggrin release was detected in the media by ELISA, Enzyme-linked Immunosorbent Assay Kit for filaggrin, Cloud-Clone Corp.

[9] = test system: 3D epidermis model system for dry skin; experiment: Barrier improving efficacy on SDS damaged 3D skin models for dry skin (TEM of intercellular lipid lamellae); format: cell-based; details: 0.5% in a skin care formulation, topical, after SDS treatment
Method: Barrier Improving Efficacy on SDS Damaged 3D Skin Models for Dry Skin
For this purpose an in vitro study was performed on a 3D epidermis model system for dry skin. […] Disturbance of the epidermal barrier was measured as loss of intercellular lipid lamellae. The skin repair performance was determined by transmission electron microscopy (TEM) after treatment with L. plantarum HEAL 19 formulated in a cosmetic emulsion or placebo emulsion and then further cultivated to observe reformation of intercellular lipid lamellae.

[10] = 0.05%, 24 h, gene arrays, induction defined as RQ-value >2
[11] = 0.1 and 0.05% tested, 24 h treatment, HaCaT

C[C@@H]1C[C@H]2[C@@H]3CCC4=CC(=O)C=C[C@]4(C)[C@@]3(F)[C@@H](O)C[C@]2(C)[C@@]1(O)C(=O)CO [dexamethasone, reference compound]
IL-8 release reduced to, compared to not pre-treated IL-1alpha control (HaCaT keratinocytes [1]; 30 μM, positive control): 20.4%

Lactobacillus plantarum HEAL 19 (DSM 15313) [L. plantarum HEAL 19]
IL-8 concentration in the medium reduced to, compared to only S. aureus stimulated control (HaCaT keratinocytes [2]): 31% | cytokeratin 14 (CK14) production ([3]; topical treatment): increased | involucrin production ([3]; topical treatment): increased | filaggrin release/contents ex vivo [3]: concentration dependent induction | rhodamine B penetration (skin barrier integrity) (ex vivo skin models): reduction of rhodamine B penetration | growth of S. aureus (optical density) [4]: growth inhibition effects | hyaluronic acid release compared to the medium control [5]: 145% | IL-8 release reduced to, compared to not pre-treated IL-1alpha control (HaCaT keratinocytes [1]; 0.25 mg/mL): 5.1% | IL-8 detection in cell culture medium reduced to, compared to placebo control [6]: 75% | induction of β-Defensin 3, calculated RQ-value (HaCaT keratinocytes [7]; 0.0125% L. plantarum HEAL 19, 24 h, HaCaT): 2.3 | gene expression of Calprotectin (HaCaT keratinocytes [7]; [10]): induced | gene expression of Lactotransferrin (HaCaT keratinocytes [7]; [10]): Significantly induced | gene expression of Peptidase inhibitor 3 (HaCaT keratinocytes [7]; [10]): Significantly induced | gene expression of Psoriasin (HaCaT keratinocytes [7]; [10]): Significantly induced | gene expression of RNase 7 (HaCaT keratinocytes [7]; [10]): Significantly induced | gene expression of Secretory leukocyte peptidase inhibitor (HaCaT keratinocytes [7]; [10]): Significantly induced | gene expression of β-Defensin 1 (HaCaT keratinocytes [7]; [10]): induced | gene expression of β-Defensin 3 (HaCaT keratinocytes [7]; [10]): Significantly induced | gene expression of β-Defensin 4 (HaCaT keratinocytes [7]; [10]): Significantly induced | induction of β-Defensin 3, calculated RQ-value (HaCaT keratinocytes [7]; 0.1% L. plantarum HEAL 19, 24 h, HaCaT): 243.6 | filaggrin (FLG) release in medium [8]: 215% | repair performance (length of intercellular lipid lamellae) [9]: increased repair performance

Lactobacillus plantarum HEAL 99 (DSM 15316) [L. plantarum HEAL 99]
hyaluronic acid release compared to the medium control [5]: 115% | IL-8 release reduced to, compared to not pre-treated IL-1alpha control (HaCaT keratinocytes [1]; 0.1 mg/mL): 12.6% | induction of AMP coding gene Peptidase inhibitor 3 (HaCaT keratinocytes [7]; [11]): induced concentration dependently | induction of AMP coding gene Phospholipase A2 (HaCaT keratinocytes [7]; [11]): induced concentration dependently | induction of AMP coding gene RNase 7 (HaCaT keratinocytes [7]; [11]): induced concentration dependently | induction of AMP coding gene Secretory leukocyte peptidase inhibitor (HaCaT keratinocytes [7]; [11]): induced concentration dependently | induction of AMP coding gene β-Defensin 3 (HaCaT keratinocytes [7]; [11]): induced concentration dependently | filaggrin (FLG) release in medium [8]: 150%
